Assay results taken from US20230265151A1, “GIP/GLP1 CO-AGONIST COMPOUNDS” (priority 2020, published 2023).
Like-named read-outs stand apart in the source and are kept apart here. Blank lines part the entries; values can stand above or below the molecule they belong to. *1 amine or outer side, *2 acyl side, *3 side chain or, on linkers, in order; H or OH if unused. Where a SMILES comes first, the peptide text is derived from it. Side-chain parts run from the residue outwards. [ ]: non-standard residue; d: D form. The star is where a group is joined. αMePhe(2-F) = C[C@](N)(Cc1ccccc1F)C(=O)O; γGlu = O=C(O)[C@H](CCC(=O)[*:2])N[*:1]; C14 diacid = O=C(O)CCCCCCCCCCCCC(=O)*; εLys = N[C@@H](CCCCN[*:1])C(=O)[*:2]; αMeY = C[C@](N)(Cc1ccc(O)cc1)C(=O)O; 4Pal = N[C@@H](Cc1ccncc1)C(=O)O; αMeL = CC(C)C[C@](C)(N)C(=O)O; Orn = NCCC[C@H](N)C(=O)O; Aib = CC(C)(N)C(=O)O

Key:
Type in all cases: cell-based
hGLP-1R = hGLP-1R (Homo sapiens, UniProt P43220); assay: Functional cAMP formation (HTRF) in HEK-293 clonal cells expressing hGLP-1R, 0.1% bovine casein, without or with 1.0% human serum albumin; design: expressed in transfected cells; conditions: for EC50: geometric mean
Chain of hGLP-1R (P43220 24-463): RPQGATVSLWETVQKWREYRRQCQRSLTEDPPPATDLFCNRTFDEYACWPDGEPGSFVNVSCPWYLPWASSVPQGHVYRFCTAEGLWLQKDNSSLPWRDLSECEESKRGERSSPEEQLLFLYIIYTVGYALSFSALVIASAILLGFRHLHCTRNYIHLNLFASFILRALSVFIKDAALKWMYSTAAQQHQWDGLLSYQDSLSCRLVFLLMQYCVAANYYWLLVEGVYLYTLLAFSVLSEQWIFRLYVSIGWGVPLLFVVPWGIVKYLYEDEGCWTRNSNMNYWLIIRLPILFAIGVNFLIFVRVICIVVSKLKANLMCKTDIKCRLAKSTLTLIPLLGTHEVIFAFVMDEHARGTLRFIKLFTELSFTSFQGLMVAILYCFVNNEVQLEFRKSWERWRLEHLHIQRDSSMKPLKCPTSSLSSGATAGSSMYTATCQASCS
How it was run: (§1)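 Cells were stimulated with peptide for 30 min at 37° C, then intracellular cAMP was measured by competitive HTRF (665/620 nm ratio) and converted to nM using a cAMP standard curve. Relative EC50 and Emax came from four-parameter logistic fits of percent maximal response against peptide concentration.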

hGCGR = target: T1, hGCGR (Homo sapiens, UniProt P47871); assay: Functional cAMP formation (HTRF) in HEK-293 clonal cells expressing hGCGR, 0.1% bovine casein, without or with 1.0% human serum albumin
T1 construct: expressed in transfected cells
T1 sequence (P47871 26-477): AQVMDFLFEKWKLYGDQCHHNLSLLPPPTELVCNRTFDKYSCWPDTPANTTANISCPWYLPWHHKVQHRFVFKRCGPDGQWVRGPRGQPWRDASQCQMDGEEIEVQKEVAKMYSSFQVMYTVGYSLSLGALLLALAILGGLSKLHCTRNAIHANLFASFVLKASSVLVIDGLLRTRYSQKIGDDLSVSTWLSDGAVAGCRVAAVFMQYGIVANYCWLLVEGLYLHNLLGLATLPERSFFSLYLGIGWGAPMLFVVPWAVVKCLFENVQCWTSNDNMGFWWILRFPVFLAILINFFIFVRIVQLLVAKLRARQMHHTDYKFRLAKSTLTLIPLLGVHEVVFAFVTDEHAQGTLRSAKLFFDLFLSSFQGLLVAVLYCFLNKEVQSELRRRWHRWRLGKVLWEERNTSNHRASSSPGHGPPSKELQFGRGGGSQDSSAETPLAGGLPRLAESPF
How it was run: as §1

hGIPR = target: T2, hGIPR (Homo sapiens, UniProt P48546); assay: Functional cAMP formation (HTRF) in HEK-293 clonal cells expressing hGIPR, 0.1% bovine casein, without or with 1.0% human serum albumin; conditions: for Emax: percent of maximal response to GIP(1-42)NH2, read-out: hGIPR Emax, % ± SEM
T2 construct: expressed in transfected cells
T2 sequence (P48546 22-466): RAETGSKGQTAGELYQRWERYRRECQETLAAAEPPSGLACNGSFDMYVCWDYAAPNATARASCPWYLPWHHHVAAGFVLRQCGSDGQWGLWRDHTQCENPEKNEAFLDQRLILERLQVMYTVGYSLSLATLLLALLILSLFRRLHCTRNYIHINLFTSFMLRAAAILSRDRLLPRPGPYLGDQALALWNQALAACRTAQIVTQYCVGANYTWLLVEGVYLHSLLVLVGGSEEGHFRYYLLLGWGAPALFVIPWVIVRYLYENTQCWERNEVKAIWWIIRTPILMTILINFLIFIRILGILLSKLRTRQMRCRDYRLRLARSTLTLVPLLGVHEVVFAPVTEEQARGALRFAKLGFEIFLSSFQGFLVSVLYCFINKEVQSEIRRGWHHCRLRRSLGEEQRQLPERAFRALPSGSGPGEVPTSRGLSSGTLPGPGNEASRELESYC
How it was run: as §1

[1] = 0.1% bovine casein and 1.0% human serum albumin, 37° C., read-out: hGLP-1R EC50, nM (SEM, n)
[2] = 0.1% bovine casein and 1.0% human serum albumin, 37° C., geometric mean, read-out: hGCGR EC50, nM (SEM, n)
[3] = cAMP, incubated at 37° C., 0.1% bovine casein (no human serum albumin), geometric mean, read-out: hGCGR EC50, nM (SEM, n)
[4] = 0.1% bovine casein and 1.0% human serum albumin, 37° C., geometric mean, read-out: hGIPR EC50, nM (SEM, n)
[5] = HEK293, 0.1% bovine casein and 1.0% human serum albumin, 37° C.

SMILES: CC[C@H](C)[C@H](NC(=O)[C@H](CC(C)C)NC(=O)[C@](C)(Cc1ccc(O)cc1)NC(=O)[C@@H](CCC(=O)O)NC(=O)[C@@H](NC(=O)[C@H](Cc1ccccc1)NC(=O)[C@H](CCC(=O)O)NC(=O)C(C)(C)NC(=O)[C@H](CCC(N)=O)NC(=O)[C@H](C)NC(=O)[C@H](CCCCNC(=O)COCCOCCNC(=O)COCCOCCNC(=O)CCCCCCCCCCCCC(=O)O)NC(=O)[C@H](CCCN)NC(=O)[C@H](CC(=O)O)NC(=O)[C@H](CC(C)C)NC(=O)[C@](C)(CC(C)C)NC(=O)[C@@H](NC(=O)C(C)(C)NC(=O)[C@@H](NC(=O)[C@H](CC(=O)O)NC(=O)[C@H](CO)NC(=O)[C@@H](NC(=O)[C@](C)(Cc1ccccc1F)NC(=O)[C@@H](NC(=O)CNC(=O)[C@H](CCC(=O)O)NC(=O)C(C)(C)NC(=O)[C@@H](N)Cc1ccc(O)cc1)[C@@H](C)O)[C@@H](C)O)C(C)C)[C@@H](C)CC)[C@@H](C)CC)C(=O)N[C@@H](CCCCNC(=O)COCCOCCNC(=O)COCCOCCNC(=O)CCCCCCCCCCCCC(=O)O)C(=O)NCC(=O)NCC(=O)N1CCC[C@H]1C(=O)N[C@@H](CO)C(=O)N[C@@H](CO)C(=O)NCC(=O)N[C@@H](C)C(=O)N1CCC[C@H]1C(=O)N1CCC[C@H]1C(=O)N1CCC[C@H]1C(=O)N[C@@H](CO)C(N)=O [Example 389]
Emax (hGLP-1R; HEK293, cAMP, 37° C., 0.1% bovine casein, percent of maximal response to GLP-1(7-36)NH2, arithmetic mean, read-out: hGLP-1R Emax, % ± SEM): 92.4%
EC50 (hGLP-1R; cAMP, 37° C., 0.1% bovine casein (no human serum albumin), read-out: hGLP-1R EC50, nM (SEM, n)): 0.19 nM
EC50 (hGCGR; cAMP, 37° C., 0.1% bovine casein (no human serum albumin), geometric mean, read-out: hGCGR EC50, nM (SEM, n)): > 9950 nM
EC50 (hGCGR; cAMP, 37° C., 0.1% bovine casein and 1.0% human serum albumin, geometric mean (SEM, n), read-out: hGCGR EC50, nM (SEM, n)): > 9950 nM
Emax (hGIPR; HEK293, cAMP, 37° C., 0.1% bovine casein and 1.0% human serum albumin): 82%
Emax (hGIPR; HEK293, cAMP, 37° C., 0.1% bovine casein, arithmetic mean): 94.6%
EC50 (hGIPR; cAMP, 37° C., 0.1% bovine casein (no human serum albumin), geometric mean, read-out: hGIPR EC50, nM (SEM, n)): 0.0178 nM
EC50 (hGIPR; cAMP, 37° C., 0.1% bovine casein and 1.0% human serum albumin, geometric mean (SEM, n), read-out: hGIPR EC50, nM (SEM, n)): 1.5 nM

EC50 (hGLP-1R; [1]): 18 nM
Emax (hGLP-1R; HEK293, 0.1% bovine casein and 1.0% human serum albumin, 37° C., percent of maximal response to GLP-1(7-36)NH2, read-out: hGLP-1R Emax, % ± SEM): 109%
EC50 (hGLP-1R; cAMP, incubated at 37° C., 0.1% bovine casein (no human serum albumin), read-out: hGLP-1R EC50, nM (SEM, n)): 0.386 nM
EC50 (hGCGR; [2]): > 9950 nM
EC50 (hGCGR; [3]): > 9950 nM
EC50 (hGIPR; [4]): 0.939 nM
Emax (hGIPR; [5]): 79.3%
EC50 (hGIPR; cAMP, incubated at 37° C., 0.1% bovine casein (no human serum albumin), geometric mean, read-out: hGIPR EC50, nM (SEM, n)): 0.026 nM
SMILES: CC[C@H](C)[C@H](NC(=O)[C@H](CC(C)C)NC(=O)[C@](C)(Cc1ccc(O)cc1)NC(=O)[C@@H](CCC(=O)O)NC(=O)[C@@H](NC(=O)[C@H](Cc1ccccc1)NC(=O)[C@H](CCC(=O)O)NC(=O)C(C)(C)NC(=O)[C@H](CCC(N)=O)NC(=O)[C@H](C)NC(=O)[C@H](CCCCNC(=O)[C@@H](N)CCCCNC(=O)[C@@H](N)CCCCNC(=O)CC[C@H](NC(=O)CCCCCCCCCCCCC(=O)O)C(=O)O)NC(=O)[C@H](CCCN)NC(=O)[C@H](CC(=O)O)NC(=O)[C@H](CC(C)C)NC(=O)[C@](C)(CC(C)C)NC(=O)[C@@H](NC(=O)[C@H](CO)NC(=O)[C@H](Cc1ccncc1)NC(=O)[C@H](CC(=O)O)NC(=O)[C@H](CO)NC(=O)[C@@H](NC(=O)[C@](C)(Cc1ccccc1F)NC(=O)[C@@H](NC(=O)CNC(=O)[C@H](CCC(=O)O)NC(=O)C(C)(C)NC(=O)[C@@H](N)Cc1ccc(O)cc1)[C@@H](C)O)[C@@H](C)O)[C@@H](C)CC)[C@@H](C)CC)C(=O)N[C@@H](CCC(=O)O)C(=O)NCC(=O)NCC(=O)N[C@@H](CCCCNC(=O)[C@@H](N)CCCCNC(=O)[C@@H](N)CCCCNC(=O)CC[C@H](NC(=O)CCCCCCCCCCCCC(=O)O)C(=O)O)C(N)=O [Example 187] (H-Y[Aib]EGT[αMePhe(2-F)]TSD[4Pal]SI[αMeL]LD[Orn]K([εLys-εLys-γGlu-C14 diacid])AQ[Aib]EFI[dE][αMeY]LIEGGK([εLys-εLys-γGlu-C14 diacid])-NH2; N-terminus assumed)

SMILES: CC[C@H](C)[C@H](NC(=O)[C@H](CCCN)NC(=O)[C@H](CC(=O)O)NC(=O)[C@H](CC(C)C)NC(=O)[C@](C)(CC(C)C)NC(=O)[C@@H](NC(=O)[C@H](CO)NC(=O)[C@H](Cc1ccncc1)NC(=O)[C@H](CC(=O)O)NC(=O)[C@H](CO)NC(=O)[C@@H](NC(=O)[C@](C)(Cc1ccccc1F)NC(=O)[C@@H](NC(=O)CNC(=O)[C@H](CCC(=O)O)NC(=O)C(C)(C)NC(=O)[C@@H](N)Cc1ccc(O)cc1)[C@@H](C)O)[C@@H](C)O)[C@@H](C)CC)C(=O)N[C@@H](C)C(=O)N[C@@H](CCC(N)=O)C(=O)NC(C)(C)C(=O)N[C@@H](CCCCNC(=O)COCCOCCNC(=O)COCCOCCNC(=O)CC[C@H](NC(=O)CCCc1ccc(C(C)(C)C)cc1)C(=O)O)C(=O)N[C@@H](Cc1ccccc1)C(=O)N[C@H](C(=O)N[C@H](CCC(=O)O)C(=O)N[C@@](C)(Cc1ccc(O)cc1)C(=O)N[C@@H](CC(C)C)C(=O)N[C@H](C(=O)N[C@@H](CCCCNC(=O)COCCOCCNC(=O)COCCOCCNC(=O)CC[C@H](NC(=O)CCCc1ccc(C(C)(C)C)cc1)C(=O)O)C(=O)NCC(=O)NCC(=O)N1CCC[C@H]1C(=O)N[C@@H](CO)C(=O)N[C@@H](CO)C(=O)NCC(=O)N[C@@H](C)C(=O)N1CCC[C@H]1C(=O)N1CCC[C@H]1C(=O)N1CCC[C@H]1C(=O)N[C@@H](CO)C(N)=O)[C@@H](C)CC)[C@@H](C)CC [Example 204]
EC50 (hGLP-1R; [1]): 2.44 nM
Emax (hGLP-1R; HEK293, percent of maximal response to GLP-1(7-36)NH2, 37° C., 0.1% bovine casein, arithmetic mean, read-out: hGLP-1R Emax, % ± SEM): 126%
EC50 (hGCGR; [2]): > 9950 nM
EC50 (hGCGR; [3]): > 9950 nM
EC50 (hGIPR; [4]): 0.341 nM
Emax (hGIPR; [5]): 83.3%

SMILES: CC[C@H](C)[C@H](NC(=O)[C@H](CC(C)C)NC(=O)[C@](C)(Cc1ccc(O)cc1)NC(=O)[C@H](CCCCNC(=O)COCCOCCNC(=O)COCCOCCNC(=O)CC[C@H](NC(=O)CCCCCCCCCOc1ccc(C(=O)O)cc1)C(=O)O)NC(=O)[C@@H](NC(=O)[C@H](Cc1ccccc1)NC(=O)[C@H](CCCN)NC(=O)C(C)(C)NC(=O)[C@H](CCC(N)=O)NC(=O)[C@H](C)NC(=O)[C@H](CCC(N)=O)NC(=O)[C@H](CCCN)NC(=O)[C@H](CC(=O)O)NC(=O)[C@H](CC(C)C)NC(=O)[C@](C)(CC(C)C)NC(=O)[C@@H](NC(=O)C(C)(C)NC(=O)[C@@H](NC(=O)[C@H](CC(=O)O)NC(=O)[C@H](CO)NC(=O)[C@@H](NC(=O)[C@](C)(Cc1ccccc1F)NC(=O)[C@@H](NC(=O)CNC(=O)[C@H](CCC(=O)O)NC(=O)C(C)(C)NC(=O)[C@@H](N)Cc1ccc(O)cc1)[C@@H](C)O)[C@@H](C)O)C(C)C)[C@@H](C)CC)[C@@H](C)CC)C(=O)N[C@@H](CCCCNC(=O)COCCOCCNC(=O)COCCOCCNC(=O)CC[C@H](NC(=O)CCCCCCCCCOc1ccc(C(=O)O)cc1)C(=O)O)C(=O)NCC(=O)NCC(=O)N1CCC[C@H]1C(=O)N[C@@H](CO)C(=O)N[C@@H](CO)C(=O)NCC(=O)N[C@@H](C)C(=O)N1CCC[C@H]1C(=O)N1CCC[C@H]1C(=O)N1CCC[C@H]1C(=O)N[C@@H](CO)C(N)=O [Example 447]
Emax (hGLP-1R; HEK293, read-out: hGLP-1R Emax, % ± SEM, cAMP, 37° C., 0.1% bovine casein, percent of maximal response to GLP-1(7-36)NH2, arithmetic mean): 105%
EC50 (hGLP-1R; hGLP-1R EC50, nM (SEM, n), cAMP, 37° C., 0.1% bovine casein (no human serum albumin)): 0.219 nM
EC50 (hGCGR; hGCGR EC50, nM (SEM, n), cAMP, 37° C., 0.1% bovine casein (no human serum albumin), geometric mean): > 9950 nM
EC50 (hGCGR; hGCGR EC50, nM (SEM, n), cAMP, 37° C., 0.1% bovine casein and 1.0% human serum albumin, geometric mean (SEM, n)): > 9950 nM
EC50 (hGIPR; hGIPR EC50, nM (SEM, n), cAMP, 37° C., 0.1% bovine casein (no human serum albumin), geometric mean): 0.017 nM
